Here are results for 1 compound from US10723699B2 (Hyundai Pharm Co., Ltd., priority 2015, dated 2020).

Holding throughout (format): in vitro ADME
The target in one series is T1, CYP2D6 (Homo sapiens, UniProt P10635).
T1 construct: purchased Invitrogen P2862
The series can be described thus: CYP inhibition assay (Invitrogen P2862 kit). Particulars: 10 µM. The source says: (§1) CYP enzymes play a major role in the metabolism of drugs. Depending on the inhibition activity of the CYP enzymes, the dose of the drugs and toxicity due to the co-administration of other drugs can be predicted. Therefore, we have measured the inhibitory activity for CYP3A4, CYP2C9, CYP1A2, CYP2D6 and CYP2C19 enzymes present in the body using the compounds of the present invention. Invitrogen P2862 kit was used for CYP2D6 inhibition assay, and BD GENTEST (459100, 459300, 459400, 459500) kits were used for CYP1A2, CYP2C9, CYP2C19 and CYP3A4 inhibition assay. In case of Invitrogen kit, the test materials were diluted in distilled water into 2.5× of the final test concentration.
P450 BACULOSOMES® reagent and regeneration device (100×) provided by the Invitrogen kit were diluted in the Vivid® reaction buffer (2×) into the appropriate concentration for the type of CYP450. After mixing 80 μl of the 2.5× test material and 100 μl of the mixture of the diluted P450 BACULOSOMES® reagent in U-bottom 96-well plate, the resulting mixture was pre-incubated for 20 minutes. Vivid® CYP450 substrate and NADP+ (100×) were diluted in the Vivid® CYP450 reaction buffer (2×) into the appropriate concentration for the types of CYP450 and the substrates. After completion of the pre-incubation, 20/l of the substrate-NADP (nicotinamide adenine dinucleotide phosphate) mixture was added, and then incubated for 1 hour. After completion of the reaction, the reactants were transferred to the white plates, and fluorescence values were measured using a micro-plate reader (Excitation and absorption wavelengths of CYP2D6 were 400 nm and 502 nm, respectively).
(§2) The measured values were converted into the inhibition percent of the test materials as compared to the value of the untreated control, and the results were summarized in Table 5.

The target in a further series is T2, CYP1A2 (Homo sapiens, UniProt P05177).
T2 construct: purchased BD GENTEST 459100
T2 sequence (P05177 1-516): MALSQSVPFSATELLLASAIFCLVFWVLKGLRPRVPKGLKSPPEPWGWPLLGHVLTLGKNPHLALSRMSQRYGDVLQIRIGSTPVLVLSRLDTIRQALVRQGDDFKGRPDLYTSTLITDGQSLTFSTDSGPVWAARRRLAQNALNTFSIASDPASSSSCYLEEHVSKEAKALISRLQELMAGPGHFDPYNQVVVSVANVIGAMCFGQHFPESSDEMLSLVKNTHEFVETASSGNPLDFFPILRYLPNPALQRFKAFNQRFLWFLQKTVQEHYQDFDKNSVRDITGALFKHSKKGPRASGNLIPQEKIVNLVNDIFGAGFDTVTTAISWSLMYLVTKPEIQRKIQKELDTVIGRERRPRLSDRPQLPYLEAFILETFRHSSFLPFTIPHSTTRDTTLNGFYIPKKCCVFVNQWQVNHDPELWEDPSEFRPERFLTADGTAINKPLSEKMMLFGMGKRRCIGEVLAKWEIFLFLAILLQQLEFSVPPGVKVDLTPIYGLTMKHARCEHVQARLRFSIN
The series can be described thus: CYP inhibition assay (BD GENTEST kit). Particulars: 10 μM.
From the text: as §1
(§3) In case of BD GENTEST kit, the test materials were diluted in acetonitrile into 50× of the final test concentration. NADPH-cofactor mixture containing cofactor, G6PDH and control protein was prepared in distilled water as per manufacturer's instruction. 4 μl of 50× test materials and 96 μl of NADPH-cofactor mixture were mixed in U-bottom 96-well plate, and the resulting mixture were pre-incubated at 37° C. for 10 minutes. Predetermined concentrations of enzyme/substrate mixture were prepared in distilled water using buffer (0.5M potassium phosphate, pH 7.4) and each of CYP450 enzyme/substrate mixture provided in the kit for the types of CYP450. To the pre-incubated plate, 100 μl of enzyme/substrate mixture was added, and then incubated at 37° C. for 15 minutes (CYP1A2), 30 minutes (CYP3A4 and CYP2C19) or 1.5 hours (CYP2C9). After completion of the reaction, the reactants were transferred to the white plates, and fluorescent values were measured using a micro-plate reader (Excitation and absorption wavelengths of CYP1A2 and CYP2C19 were 410 nm and 460 nm, respectively; and excitation and absorption wavelengths of CYP2C9 and CYP3A4 were 409 nm and 530 nm, respectively).
as §2

The next series has as its target T3, CYP3A4 (Homo sapiens, UniProt P08684).
T3 construct: purchased BD GENTEST 459500
As to the kind of experiment: CYP inhibition assay (BD GENTEST kit). Particulars: 10 μM.
From the text: as §1, §3, §2

Another series concerns the target T4, CYP2C9 (Homo sapiens, UniProt P11712).
T4 construct: purchased BD GENTEST 459300
The series can be described thus: CYP inhibition assay (BD GENTEST kit). Particulars: 10 μM.
From the text: as §1, §3, §2

The next series has as its target T5, CYP2C19 (Homo sapiens, UniProt P33261).
T5 construct: purchased BD GENTEST 459400
As to the kind of experiment: CYP inhibition assay (BD GENTEST kit). Particulars: 10 μM.
From the text: as §1, §3, §2

T1 sequence (P10635 whole entry): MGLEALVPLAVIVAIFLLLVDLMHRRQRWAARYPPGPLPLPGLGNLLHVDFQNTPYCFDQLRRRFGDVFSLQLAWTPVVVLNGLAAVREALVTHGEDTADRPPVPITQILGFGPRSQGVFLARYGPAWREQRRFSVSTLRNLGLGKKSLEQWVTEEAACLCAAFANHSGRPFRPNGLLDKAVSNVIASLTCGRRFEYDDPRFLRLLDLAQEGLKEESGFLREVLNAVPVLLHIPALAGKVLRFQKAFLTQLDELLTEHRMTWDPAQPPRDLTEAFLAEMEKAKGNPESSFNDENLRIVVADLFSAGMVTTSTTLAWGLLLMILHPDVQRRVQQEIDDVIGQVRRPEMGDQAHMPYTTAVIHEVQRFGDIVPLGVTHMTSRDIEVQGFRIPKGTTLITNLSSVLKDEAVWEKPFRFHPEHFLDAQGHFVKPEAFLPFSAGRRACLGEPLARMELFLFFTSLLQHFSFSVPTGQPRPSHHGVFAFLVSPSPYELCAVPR
T3 sequence (P08684 whole entry): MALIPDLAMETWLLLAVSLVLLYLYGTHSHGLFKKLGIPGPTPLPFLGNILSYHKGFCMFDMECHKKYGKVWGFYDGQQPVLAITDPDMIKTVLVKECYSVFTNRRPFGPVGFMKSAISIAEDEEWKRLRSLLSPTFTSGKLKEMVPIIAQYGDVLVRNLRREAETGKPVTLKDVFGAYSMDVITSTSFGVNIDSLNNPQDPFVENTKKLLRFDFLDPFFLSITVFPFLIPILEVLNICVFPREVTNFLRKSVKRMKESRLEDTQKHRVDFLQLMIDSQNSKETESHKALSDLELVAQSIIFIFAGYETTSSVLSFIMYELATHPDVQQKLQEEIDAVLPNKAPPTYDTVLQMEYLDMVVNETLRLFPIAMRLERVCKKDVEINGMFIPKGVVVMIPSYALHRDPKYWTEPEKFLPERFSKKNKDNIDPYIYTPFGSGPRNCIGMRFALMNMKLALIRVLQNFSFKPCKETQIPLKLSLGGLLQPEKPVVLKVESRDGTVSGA
T4 sequence (P11712 whole entry): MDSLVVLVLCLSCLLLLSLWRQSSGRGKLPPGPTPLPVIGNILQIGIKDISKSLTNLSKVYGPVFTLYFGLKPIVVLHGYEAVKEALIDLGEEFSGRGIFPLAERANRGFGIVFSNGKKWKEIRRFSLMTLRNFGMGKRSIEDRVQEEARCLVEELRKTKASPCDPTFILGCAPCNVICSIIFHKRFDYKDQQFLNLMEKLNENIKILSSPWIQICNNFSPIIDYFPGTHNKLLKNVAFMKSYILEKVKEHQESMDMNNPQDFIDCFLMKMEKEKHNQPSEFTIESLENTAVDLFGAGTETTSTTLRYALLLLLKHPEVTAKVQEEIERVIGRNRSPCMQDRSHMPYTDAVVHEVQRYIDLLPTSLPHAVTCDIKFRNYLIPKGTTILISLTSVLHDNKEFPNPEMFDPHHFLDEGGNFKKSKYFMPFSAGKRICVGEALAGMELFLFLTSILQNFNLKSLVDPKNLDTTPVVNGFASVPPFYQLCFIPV
T5 sequence (P33261 whole entry): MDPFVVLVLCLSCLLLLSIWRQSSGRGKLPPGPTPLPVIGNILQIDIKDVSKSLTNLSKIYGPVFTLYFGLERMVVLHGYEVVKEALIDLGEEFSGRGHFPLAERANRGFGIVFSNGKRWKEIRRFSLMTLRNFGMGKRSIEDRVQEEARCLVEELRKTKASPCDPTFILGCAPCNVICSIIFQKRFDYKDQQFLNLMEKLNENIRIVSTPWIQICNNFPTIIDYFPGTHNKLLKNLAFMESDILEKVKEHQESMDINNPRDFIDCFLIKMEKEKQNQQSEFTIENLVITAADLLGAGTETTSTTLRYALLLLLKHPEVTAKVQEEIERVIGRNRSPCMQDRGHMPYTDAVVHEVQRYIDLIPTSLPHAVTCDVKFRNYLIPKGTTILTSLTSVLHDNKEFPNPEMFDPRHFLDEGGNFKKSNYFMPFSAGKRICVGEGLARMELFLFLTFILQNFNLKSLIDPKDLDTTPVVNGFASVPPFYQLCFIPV

`CCc1cnc(N2CCC(COc3ccc(C4=CCC(C(=O)N5CCC[C@@H]5CO)CC4)cc3)CC2)nc1` (single isomer, unassigned; (-)) [Example 291]: at CYP2D6, the “CYP inhibition (% at 10 μM) 2D6” value turned out to be 2.49%. Also, the “CYP inhibition (% at 10 μM) 1A2” value at CYP1A2 is 0%. Further, at CYP3A4, the “CYP inhibition (% at 10 μM) 3A4” value came to 36.36%. The “CYP inhibition (% at 10 μM) 2C9” value at CYP2C9 is recorded as 47.32%. Besides, the “CYP inhibition (% at 10 μM) 2C19” value on CYP2C19 turned out to be 54.06%.
